The values that follow come from patent US20250282799A1, “SUBSTITUTED PYRIDO[4,3-d]PYRIMIDINES AS KRAS MODULATORS” (Alterome Therapeutics, Inc., priority 2023, published 2025).

This assay addresses KRAS (G12V)/CRAF (Homo sapiens (Human), UniProt P01116, G12V). Briefly: TR-FRET biochemical KRAS:CRAF protein:protein interaction assay, KRAS (G12V). The conditions noted are these: GMPPNP loaded Biotin-KRAS (G12V), FLAG CRAF RBD; read-out: TR-Fret_PPI KRAS (G12V)/CRAF IC50. It is filed as binding. An outline of the steps: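 Compound (10-point 3-fold series, 1% DMSO final) preincubated 30 min at room temperature with 20 nM biotin-KRAS mutant loaded with GMPPNP, in Hepes pH7.3 buffer with 5 mM MgCl2 and 10 uM GMP-PNP. Then 100 nM FLAG-CRAF RBD for 150 min, 1 nM Tb-anti-FLAG/5 nM SA-XL665 for 90 min; IC50 from normalized 665/620 ratio, 4-parameter fit.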
(In TR-FRET formats the signal depends on donor and acceptor labels being close together.)

Chain of KRAS (G12V)/CRAF (P01116-2 other isoform, or with tags, fused parts or gaps G12V): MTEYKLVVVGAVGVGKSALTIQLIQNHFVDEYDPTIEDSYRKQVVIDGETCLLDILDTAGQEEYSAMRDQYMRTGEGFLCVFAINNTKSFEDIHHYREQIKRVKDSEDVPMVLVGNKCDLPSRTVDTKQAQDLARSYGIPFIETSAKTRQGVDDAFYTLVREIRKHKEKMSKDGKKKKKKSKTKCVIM

With `[2H]C([2H])(Oc1nc(N2CCCC[C@H]3[C@H](F)[C@H]32)c2cnc(-c3cc(N)cc4cc(F)c(F)c(C#C)c34)c(F)c2n1)[C@@]12CCCN1C[C@H](F)C2` [Example 16, 5-Ethynyl-6,7-difluoro-4-(8-fluoro-4-((1S,7R,8S)-8-fluoro-2-azabicyclo[5.1.0]octan-2-yl)-2-(((2R,7aS)-2-fluorotetrahydro-1H-pyrrolizin-7a(5H)-yl)methoxy-d2)pyrido[4,3-d]pyrimidin-7-yl)naphthalen-2-amine], the IC50 is 56.7 nM.

As to `[2H]C([2H])(Oc1nc(N2CCOC[C@H]3[C@H](F)[C@H]32)c2cnc(-c3cc(N)cc4cc(F)c(F)c(C#C)c34)c(F)c2n1)[C@@]12CCCN1C[C@H](F)C2` [Example 28, 5-Ethynyl-6,7-difluoro-4-(8-fluoro-4-((1S,7S,8S)-8-fluoro-5-oxa-2-azabicyclo[5.1.0]octan-2-yl)-2-(((2R,7aS)-2-fluorotetrahydro-1H-pyrrolizin-7a(5H)-yl)methoxy-d2)pyrido[4,3-d]pyrimidin-7-yl)naphthalen-2-amine], the IC50 was 89.7 nM. For `[2H]C([2H])(Oc1nc(N2CCCC[C@H]3[C@H](F)[C@H]32)c2cnc(-c3cc(N)cc4ccc(F)c(C#C)c34)c(F)c2n1)[C@@]12CCCN1C[C@H](F)C2` [Example 82, 5-Ethynyl-6-fluoro-4-(8-fluoro-4-((1S,7R,8S)-8-fluoro-2-azabicyclo[5.1.0]octan-2-yl)-2-(((2R,7aS)-2-fluorotetrahydro-1H-pyrrolizin-7a(5H)-yl)methoxy-d2)pyrido[4,3-d]pyrimidin-7-yl)naphthalen-2-amine], the IC50 was 39.2 nM.

With `[2H]C([2H])(Oc1nc(N2CCOC[C@H]3[C@H](F)[C@H]32)c2cnc(-c3cc(N)cc4ccc(F)c(C#C)c34)c(F)c2n1)[C@@]12CCCN1C[C@H](F)C2` [Example 87, 5-Ethynyl-6-fluoro-4-(8-fluoro-4-((1S,7S,8S)-8-fluoro-5-oxa-2-azabicyclo[5.1.0]octan-2-yl)-2-(((2R,7aS)-2-fluorotetrahydro-1H-pyrrolizin-7a(5H)-yl)methoxy-d2)pyrido[4,3-d]pyrimidin-7-yl)naphthalen-2-amine], the IC50 was determined as 60 nM.
